What was measured:
[1] = tested on: Sinbis, Sendai and VSV viruses; settings: 4° C.; cited from earlier work
[2] = tested on: HIV virus; settings: 5 minute contact, room temperature; ether removed by distillation at 50-52° C.; cited from earlier work
[3] = biological target: blood protein factor VIII (Homo sapiens, UniProt P00451); settings: cited from earlier work
[4] = tested on: virus particles; test: electron microscope study of virus particles before and after inactivation; settings: inactivation for 60 min, 1 min and 30 seconds

Chain of blood protein factor VIII (P00451 20-2351): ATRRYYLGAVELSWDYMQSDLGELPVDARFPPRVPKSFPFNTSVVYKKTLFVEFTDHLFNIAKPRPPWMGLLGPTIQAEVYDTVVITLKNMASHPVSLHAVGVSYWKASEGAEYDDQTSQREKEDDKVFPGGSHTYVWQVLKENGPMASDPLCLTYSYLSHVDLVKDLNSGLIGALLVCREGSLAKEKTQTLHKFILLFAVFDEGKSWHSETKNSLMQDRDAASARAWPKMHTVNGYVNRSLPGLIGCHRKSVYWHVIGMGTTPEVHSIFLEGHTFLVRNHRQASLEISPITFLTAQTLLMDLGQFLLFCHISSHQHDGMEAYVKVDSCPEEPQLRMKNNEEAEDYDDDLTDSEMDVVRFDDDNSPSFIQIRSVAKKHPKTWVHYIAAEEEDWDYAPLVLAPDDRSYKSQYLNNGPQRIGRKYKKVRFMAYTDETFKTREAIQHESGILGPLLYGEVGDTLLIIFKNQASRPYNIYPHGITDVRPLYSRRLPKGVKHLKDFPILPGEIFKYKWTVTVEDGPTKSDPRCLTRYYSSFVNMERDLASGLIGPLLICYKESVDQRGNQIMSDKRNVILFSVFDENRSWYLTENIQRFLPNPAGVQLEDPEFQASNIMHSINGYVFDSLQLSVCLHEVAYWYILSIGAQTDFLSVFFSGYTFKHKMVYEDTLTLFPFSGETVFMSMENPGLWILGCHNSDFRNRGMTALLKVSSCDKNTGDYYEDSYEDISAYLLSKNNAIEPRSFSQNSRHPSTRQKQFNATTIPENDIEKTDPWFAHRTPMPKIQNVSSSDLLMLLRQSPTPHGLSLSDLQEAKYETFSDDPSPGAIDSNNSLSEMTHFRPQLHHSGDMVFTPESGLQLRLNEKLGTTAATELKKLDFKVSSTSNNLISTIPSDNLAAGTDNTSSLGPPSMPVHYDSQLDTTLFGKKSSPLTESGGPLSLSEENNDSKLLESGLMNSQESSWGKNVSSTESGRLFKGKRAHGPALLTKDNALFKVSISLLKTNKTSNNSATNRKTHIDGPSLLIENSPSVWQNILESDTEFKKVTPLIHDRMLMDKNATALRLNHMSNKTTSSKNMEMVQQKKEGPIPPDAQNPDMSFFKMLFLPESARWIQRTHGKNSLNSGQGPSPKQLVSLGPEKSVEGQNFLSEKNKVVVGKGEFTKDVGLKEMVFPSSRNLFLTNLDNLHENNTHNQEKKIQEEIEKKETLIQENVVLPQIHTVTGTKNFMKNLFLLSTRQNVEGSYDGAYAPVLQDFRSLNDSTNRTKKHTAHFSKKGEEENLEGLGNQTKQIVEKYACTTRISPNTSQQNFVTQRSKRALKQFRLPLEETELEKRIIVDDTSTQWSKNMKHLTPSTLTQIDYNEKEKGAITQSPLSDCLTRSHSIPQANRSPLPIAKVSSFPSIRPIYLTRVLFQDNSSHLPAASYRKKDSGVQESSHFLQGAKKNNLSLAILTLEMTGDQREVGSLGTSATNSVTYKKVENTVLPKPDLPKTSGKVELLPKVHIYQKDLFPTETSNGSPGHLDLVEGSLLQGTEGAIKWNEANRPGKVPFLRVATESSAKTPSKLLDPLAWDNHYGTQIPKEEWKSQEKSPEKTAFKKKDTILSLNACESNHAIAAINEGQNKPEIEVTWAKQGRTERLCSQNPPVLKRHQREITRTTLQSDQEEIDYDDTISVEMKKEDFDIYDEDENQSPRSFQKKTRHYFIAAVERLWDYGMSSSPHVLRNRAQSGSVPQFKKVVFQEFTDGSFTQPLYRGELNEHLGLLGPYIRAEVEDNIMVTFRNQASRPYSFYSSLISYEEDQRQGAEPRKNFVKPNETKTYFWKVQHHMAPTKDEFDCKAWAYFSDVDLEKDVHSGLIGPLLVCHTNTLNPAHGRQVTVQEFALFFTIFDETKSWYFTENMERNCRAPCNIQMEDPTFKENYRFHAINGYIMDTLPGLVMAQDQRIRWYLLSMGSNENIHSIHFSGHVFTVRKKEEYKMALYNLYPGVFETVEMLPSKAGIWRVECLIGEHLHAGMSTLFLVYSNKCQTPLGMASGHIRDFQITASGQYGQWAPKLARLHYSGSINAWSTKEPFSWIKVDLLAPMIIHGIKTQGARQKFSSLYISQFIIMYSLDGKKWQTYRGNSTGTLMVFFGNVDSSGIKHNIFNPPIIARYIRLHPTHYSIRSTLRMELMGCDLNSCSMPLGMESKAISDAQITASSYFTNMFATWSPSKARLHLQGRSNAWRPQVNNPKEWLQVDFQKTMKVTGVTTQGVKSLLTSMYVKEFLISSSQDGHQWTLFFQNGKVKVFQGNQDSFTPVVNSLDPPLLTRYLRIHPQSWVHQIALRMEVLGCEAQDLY

For `CCOCC` [diethyl ether], the “time to inactivate these viruses” value [1] is listed as “many hours” and the “inactivation of the HIV virus” value [2] is listed as “complete inactivation”.

In the case of `O=C1CCO1` [β-propiolactone], the “inactivation of factor VIII” value [3] is given as “up to 75%”.

With `CC(C)OC(C)C` [DIPE, di-isopropyl ether] the “infectivity or visible virus particles by EM” value [4] was “no infectivity or visible virus particles detected”.

From US20030133929A1 (priority 2002, published 2003)
